From publication PMC4515243, “Phase 1 pharmacokinetic study of the oral pan-AKT inhibitor MK-2206 in Japanese patients with advanced solid tumors” (Cancer Chemotherapy and Pharmacology, 2015)

Tested on: Japanese patients with advanced solid tumors
Experiment: phase 1 safety and tolerability (DLT, adverse events) in Japanese patients;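 further: toxicities graded by NCI CTCAE version 3.0, treatment given until disease progression or unacceptable toxicity, three to nine patients enrolled per dose level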
Description: Treatment was continued until disease progression or the occurrence of an unacceptable toxicity.
A minimum of three and up to nine patients were enrolled at each dose level based on the toxicity probability intervals [9].
Adverse events were graded using the National Cancer Institute Common Terminology Criteria for Adverse Events, version 3.0.

Structure (SMILES): NC1(c2ccc(-c3nc4ccn5c(=O)[nH]nc5c4cc3-c3ccccc3)cc2)CCC1 [MK-2206]
- ALT increased, drug-related adverse event, patients (45 mg QOD (n = 3), All grades): 0
- Blood creatinine increased, drug-related adverse event, patients (45 mg QOD (n = 3), All grades): 1
- Decreased appetite, drug-related adverse event, patients (45 mg QOD (n = 3), All grades): 1
- Diarrhea, drug-related adverse event, patients (45 mg QOD (n = 3), All grades): 1
- Dry skin, drug-related adverse event, patients (45 mg QOD (n = 3), All grades): 2
- Eosinophil count increased, drug-related adverse event, patients (45 mg QOD (n = 3), All grades): 0
- Eosinophilia, drug-related adverse event, patients (45 mg QOD (n = 3), All grades): 2
- Erythema multiforme, drug-related adverse event, patients (45 mg QOD (n = 3), All grades): 0
- Fatigue, drug-related adverse event, patients (45 mg QOD (n = 3), All grades): 1
- HbA1C increased, drug-related adverse event, patients (45 mg QOD (n = 3), All grades): 0
- Hyperglycemia, drug-related adverse event, patients (45 mg QOD (n = 3), All grades): 1
- Hypernatremia, drug-related adverse event, patients (45 mg QOD (n = 3), All grades): 0
- Hypoalbuminemia, drug-related adverse event, patients (45 mg QOD (n = 3), All grades): 0
- Hypokalemia, drug-related adverse event, patients (45 mg QOD (n = 3), All grades): 0
- Insulin c-peptide increased, drug-related adverse event, patients (45 mg QOD (n = 3), All grades): 2
- Leukopenia, drug-related adverse event, patients (45 mg QOD (n = 3), All grades): 2
- Localized edema, drug-related adverse event, patients (45 mg QOD (n = 3), All grades): 0
- Lymphopenia, drug-related adverse event, patients (45 mg QOD (n = 3), All grades): 2
- Nausea, drug-related adverse event, patients (45 mg QOD (n = 3), All grades): 0
- Neutropenia, drug-related adverse event, patients (45 mg QOD (n = 3), All grades): 2
- Palmar-plantar erythrodysaesthesia syndrome, drug-related adverse event, patients (45 mg QOD (n = 3), All grades): 1
- Pruritus, drug-related adverse event, patients (45 mg QOD (n = 3), All grades): 1
- Pyrexia, drug-related adverse event, patients (45 mg QOD (n = 3), All grades): 1
- Rash, drug-related adverse event, patients (45 mg QOD (n = 3), All grades): 3
- Stomatitis, drug-related adverse event, patients (45 mg QOD (n = 3), All grades): 2
- Vomiting, drug-related adverse event, patients (45 mg QOD (n = 3), All grades): 0
- ALT increased, drug-related adverse event, patients (45 mg QOD (n = 3), Grades 3–5): 0
- Blood creatinine increased, drug-related adverse event, patients (45 mg QOD (n = 3), Grades 3–5): 0
- Decreased appetite, drug-related adverse event, patients (45 mg QOD (n = 3), Grades 3–5): 0
- Diarrhea, drug-related adverse event, patients (45 mg QOD (n = 3), Grades 3–5): 1
- Dry skin, drug-related adverse event, patients (45 mg QOD (n = 3), Grades 3–5): 0
- Eosinophil count increased, drug-related adverse event, patients (45 mg QOD (n = 3), Grades 3–5): 0
- Eosinophilia, drug-related adverse event, patients (45 mg QOD (n = 3), Grades 3–5): 0
- Erythema multiforme, drug-related adverse event, patients (45 mg QOD (n = 3), Grades 3–5): 0
- Fatigue, drug-related adverse event, patients (45 mg QOD (n = 3), Grades 3–5): 0
- HbA1C increased, drug-related adverse event, patients (45 mg QOD (n = 3), Grades 3–5): 0
- Hyperglycemia, drug-related adverse event, patients (45 mg QOD (n = 3), Grades 3–5): 0
- Hypernatremia, drug-related adverse event, patients (45 mg QOD (n = 3), Grades 3–5): 0
- Hypoalbuminemia, drug-related adverse event, patients (45 mg QOD (n = 3), Grades 3–5): 0
- Hypokalemia, drug-related adverse event, patients (45 mg QOD (n = 3), Grades 3–5): 0
- Insulin c-peptide increased, drug-related adverse event, patients (45 mg QOD (n = 3), Grades 3–5): 0
- Leukopenia, drug-related adverse event, patients (45 mg QOD (n = 3), Grades 3–5): 0
- Localized edema, drug-related adverse event, patients (45 mg QOD (n = 3), Grades 3–5): 0
- Lymphopenia, drug-related adverse event, patients (45 mg QOD (n = 3), Grades 3–5): 2
- Nausea, drug-related adverse event, patients (45 mg QOD (n = 3), Grades 3–5): 0
- Neutropenia, drug-related adverse event, patients (45 mg QOD (n = 3), Grades 3–5): 1
- Palmar-plantar erythrodysaesthesia syndrome, drug-related adverse event, patients (45 mg QOD (n = 3), Grades 3–5): 0
- Pruritus, drug-related adverse event, patients (45 mg QOD (n = 3), Grades 3–5): 0
- Pyrexia, drug-related adverse event, patients (45 mg QOD (n = 3), Grades 3–5): 0
- Rash, drug-related adverse event, patients (45 mg QOD (n = 3), Grades 3–5): 0
- Stomatitis, drug-related adverse event, patients (45 mg QOD (n = 3), Grades 3–5): 0
- Vomiting, drug-related adverse event, patients (45 mg QOD (n = 3), Grades 3–5): 0
- DLTs during Cycle 1 (45 mg QOD, three patients): No DLTs
- ALT increased, drug-related adverse event, patients (60 mg QOD (n = 9), All grades): 1
- Blood creatinine increased, drug-related adverse event, patients (60 mg QOD (n = 9), All grades): 1
- Decreased appetite, drug-related adverse event, patients (60 mg QOD (n = 9), All grades): 1
- Diarrhea, drug-related adverse event, patients (60 mg QOD (n = 9), All grades): 5
- Dry skin, drug-related adverse event, patients (60 mg QOD (n = 9), All grades): 0
- Eosinophil count increased, drug-related adverse event, patients (60 mg QOD (n = 9), All grades): 0
- Eosinophilia, drug-related adverse event, patients (60 mg QOD (n = 9), All grades): 6
- Erythema multiforme, drug-related adverse event, patients (60 mg QOD (n = 9), All grades): 0
- Fatigue, drug-related adverse event, patients (60 mg QOD (n = 9), All grades): 4
- HbA1C increased, drug-related adverse event, patients (60 mg QOD (n = 9), All grades): 2
- Hyperglycemia, drug-related adverse event, patients (60 mg QOD (n = 9), All grades): 3
- Hypernatremia, drug-related adverse event, patients (60 mg QOD (n = 9), All grades): 1
- Hypoalbuminemia, drug-related adverse event, patients (60 mg QOD (n = 9), All grades): 2
- Hypokalemia, drug-related adverse event, patients (60 mg QOD (n = 9), All grades): 1
- Insulin c-peptide increased, drug-related adverse event, patients (60 mg QOD (n = 9), All grades): 7
- Leukopenia, drug-related adverse event, patients (60 mg QOD (n = 9), All grades): 2
- Localized edema, drug-related adverse event, patients (60 mg QOD (n = 9), All grades): 0
